Drawing on ChEMBL document CHEMBL6109153, “Development of Membrane-Targeting Osthole Derivatives Containing Pyridinium Quaternary Ammonium Moieties with Potent Anti-Methicillin-Resistant Staphylococcus aureus Properties” (J Med Chem, 2025), this text covers Activity and Survival for one compound.

Calls of active or inactive are those of the source. The calls are words filed in the database; no cut-off is given here.

The test system of data set [1] is Staphylococcus aureus. Briefly: Antibacterial activity against methicillin-resistant Staphylococcus aureus M11 infected in BALB/c mouse model of Sepsis assessed as reduction in hepatic sinusoidal dilation at 10 mg/kg, ip measured after 48 hrs. In kind it is functional, organism-based.
Data set [2] in a line: Toxicity in BALB/c mouse model of Sepsis infected with methicillin-resistant Staphylococcus aureus M11 assessed as survival rate at 15 mg/kg, ip measured after 7 days. It counts as organism-based. The settings on record: in vivo, 168 h, time 7 day.
Data set [3] has as its system Staphylococcus aureus. Briefly: Antibacterial activity against methicillin-resistant Staphylococcus aureus M11 infected in BALB/c mouse model of Sepsis assessed as reduction in redness in inner epidermal abscesses at 4 mg/kg measured after 24 hrs. In kind it is functional, organism-based.
In data set [4] the test system is Staphylococcus aureus. The experiment in a line: Antibacterial activity against methicillin-resistant Staphylococcus aureus M11 infected in BALB/c mouse model of Sepsis assessed as reduction in hepatic congestion at 10 mg/kg, ip measured after 48 hrs. It counts as functional, organism-based.
Data set [5] concerns Staphylococcus aureus. The experiment in a line: Induction of bacterial eradication in methicillin-resistant Staphylococcus aureus M11 at 8 times MIC incubated for 8 hrs by time-kill assay. In kind it is functional, organism-based.
Data set [6] has as its system Staphylococcus aureus. The experiment in a line: Antibacterial activity against methicillin-resistant Staphylococcus aureus M11 infected in BALB/c mouse model of Sepsis assessed as reduction in bacterial load in kidney at 20 mg/kg, ip measured after 48 hrs. It counts as functional.
Data set [7] concerns Staphylococcus aureus. Briefly: Antibacterial activity against methicillin-resistant Staphylococcus aureus M11 infected in BALB/c mouse model of Sepsis assessed as reduction in abscess size on back at 4 mg/kg measured after 24 hrs. It counts as functional, organism-based.
Data set [8] concerns Staphylococcus aureus. Briefly: Antibacterial activity against methicillin-resistant Staphylococcus aureus M11 infected in BALB/c mouse model of Sepsis assessed as reduction in bacterial load in skin tissues at 4 mg/kg measured after 24 hrs. In kind it is functional.
Data set [9] relates to Staphylococcus aureus. The experiment in a line: Antibacterial activity against methicillin-resistant Staphylococcus aureus M11 infected in BALB/c mouse model of Sepsis assessed as reduction in bacterial load in liver at 20 mg/kg, ip measured after 48 hrs. In kind it is functional.
Data set [10] is described as follows: Toxicity in BALB/c mouse model of Sepsis infected with methicillin-resistant Staphylococcus aureus M11 assessed as survival rate at 10 mg/kg, ip measured after 7 days. It counts as organism-based. As to conditions: in vivo, 168 h, time 7 day.
Data set [11] deals with Staphylococcus aureus. The experiment in a line: Antibacterial activity against methicillin-resistant Staphylococcus aureus M11 infected in BALB/c mouse model of Sepsis assessed as reduction in bacterial load in skin tissues at 8 mg/kg measured after 24 hrs. It counts as functional.
For data set [12], the system named is Staphylococcus aureus. Briefly: Antibacterial activity against methicillin-resistant Staphylococcus aureus M11 infected in BALB/c mouse model of Sepsis assessed as reduction in bacterial count in skin tissues at 8 mg/kg measured after 24 hrs relative to control. In kind it is functional. Details: scale not given: the % may be the effect or the level left.
Data set [13] has as its system Staphylococcus aureus. Briefly: Antibacterial activity against methicillin-resistant Staphylococcus aureus M11 infected in BALB/c mouse model of Sepsis assessed as reduction in bacterial count in skin tissues at 4 mg/kg measured after 24 hrs relative to control. It counts as functional. Also on record: scale not given: the % may be the effect or the level left.
Data set [14] has as its system Staphylococcus aureus. Briefly: Antibacterial activity against methicillin-resistant Staphylococcus aureus M11 infected in BALB/c mouse model of Sepsis assessed as reduction in swelling in inner epidermal abscesses at 4 mg/kg measured after 24 hrs. It counts as functional, organism-based.
Data set [15] has as its system Staphylococcus aureus. Briefly: Antibacterial activity against methicillin-resistant Staphylococcus aureus M11 infected in BALB/c mouse model of Sepsis assessed as reduction in inflammatory cell infiltration in skin tissues at 4 to 8 mg/kg measured after 24 hrs by H and E staining based analysis. It counts as functional, organism-based. The settings on record: dose 4-8 mg/kg.

Data set [16] concerns Staphylococcus aureus. The experiment in a line: Antibacterial activity against methicillin-resistant Staphylococcus aureus M11 infected in BALB/c mouse model of Sepsis assessed as reduction in bacterial load in spleen at 20 mg/kg, ip measured after 48 hrs. In kind it is functional.
For data set [17], the system named is Staphylococcus aureus. The experiment in a line: Antibacterial activity against methicillin-resistant Staphylococcus aureus M11 infected in BALB/c mouse model of Sepsis assessed as vacuolar degeneration in liver cells at 10 mg/kg, ip measured after 48 hrs. In kind it is functional, organism-based.
Data set [18] is described as follows: Toxicity in BALB/c mouse model of Sepsis infected with methicillin-resistant Staphylococcus aureus M11 assessed as survival rate at 5 mg/kg, ip measured after 7 days. In kind it is organism-based. As to conditions: in vivo, 168 h, time 7 day.

For `CN[C@H](CC(C)C)C(=O)N[C@H]1C(=O)N[C@@H](CC(N)=O)C(=O)N[C@H]2C(=O)N[C@H]3C(=O)N[C@H](C(=O)N[C@H](C(=O)O)c4cc(O)cc(O)c4-c4cc3ccc4O)[C@H](O)c3ccc(c(Cl)c3)Oc3cc2cc(c3O[C@@H]2O[C@H](CO)[C@@H](O)[C@H](O)[C@H]2O[C@H]2C[C@](C)(N)[C@H](O)[C@H](C)O2)Oc2ccc(cc2Cl)[C@H]1O` [VANCOMYCIN], the result in the data set on Staphylococcus aureus [1] and with Staphylococcus aureus [4] was inactive. The Survival is given as 100% in [2], 77.8% in data set [10] and 33.3% in data set [18]. Moreover, the result in the data set with Staphylococcus aureus [3], with Staphylococcus aureus [7], with Staphylococcus aureus [14], with Staphylococcus aureus [15] and in the data set on Staphylococcus aureus [17] was Active. Moreover, the Activity entry with Staphylococcus aureus [5] is “Not active; Compound Inhibited Bacterial Growth But Still Showed Surviving Bacteria Within The Detection Range After 8 H, Indicating Incomplete Bacterial Eradication”; in the data set with Staphylococcus aureus [6], 3.92 log10CFU/ml; in the data set with Staphylococcus aureus [8], 1.578 log10CFU/g; in the data set on Staphylococcus aureus [9] it was 3.54 log10CFU/ml; in the data set on Staphylococcus aureus [11], 3.96 log10CFU/g; in the data set with Staphylococcus aureus [12], 99.989%. Also, the Activity in the data set with Staphylococcus aureus [13] stood at 97.24%; in the data set with Staphylococcus aureus [16] it was 3.88 log10CFU/ml.
